In patent publication US20100048564A1, “FUSED BICYCLIC HETEROARYL DERIVATIVE” (DAIICHI SANKYO COMPANY, LIMITED, priority 2007, published 2010):

Assays:
KK mice = experiment: Hypoglycemic effect in diabetic KK mice (Test Example 1); type: in vivo; details: Mus musculus, po, 72 h; male KK mice, diet admixture containing 0.03% of the compound, 3 days, plasma glucose vs control group; read-out: Hypoglycemic rate (%)
Source text: Six-week-old male KK mice were purchased from CLEA Japan, Inc. and then were fed until 15 to 20 weeks old to develop diabetes. The mice were individually fed during the adaptation period and the test period, and water and feed (FR2, Funabashi Farm) were freely ingested.
At the start of the experiment, after body weight measurement, blood was collected from the tail vein of the mice into a heparin-coated glass tube and centrifuged, and then plasma was separated. The glucose level in the plasma was measured by Glucoloader GXT (A&T Corp.), and individuals having a plasma glucose level of about 350 mg/dl or more were selected. The mice were grouped, each group having 3 to 4 mice, to make the average body weight and the average plasma glucose level similar. Each compound was administered to a compound group with a diet admixture containing 0.03% of the compound. A separate group in which the mice were fed only with diet was a control group.
The experiment period (drug administration period) was three days. The grouping day was the 0th day. On the 3rd day, the body weight was measured and blood was collected from the tail vein to measure the plasma glucose level.
The hypoglycemic rate was determined by the following formula.
Hypoglycemic rate=[(Control group blood glucose level−Compound-administered group blood glucose level)/Control group blood glucose level]×100

Row | SMILES | melting point [°C] | inhibition in vivo at 0.03 % in diet (KK mice) [%]
1 | COC(=O)c1cccc(OCc2nc3ccc(Oc4cccnc4)cc3n2C)c1.Cl.Cl | 195 to 208 | –
2 | Cn1c(COc2cccc(C(=O)O)c2)nc2ccc(Oc3ccccc3F)cc21 [Example 28, 3-{[6-(2-Fluorophenoxy)-1-methyl-1H-benzimidazol-2-yl]methoxy}benzoic acid] | – | 61
3 | COc1cccc(Oc2ccc3nc(COc4cccc(C(=O)O)c4)n(C)c3c2)c1 [Example 29, 3-{[6-(3-Methoxyphenoxy)-1-methyl-1H-benzimidazol-2-yl]methoxy}benzoic acid] | – | 60
4 | Cl.Cn1c(COc2cccc(C(=O)O)c2)nc2ccc(Oc3cccc(Cl)c3)cc21 [Example 31, 3-[6-(3-Chlorophenoxy)-1-methyl-1H-benzimidazol-2-ylmethoxy]benzoic acid hydrochloride] | 218 to 222 | 47
5 | Cn1c(COc2cccc(C(=O)O)c2)nc2ccc(Oc3cccc(OC(F)(F)F)c3)cc21 [Example 33, 3-({1-Methyl-6-[3-(trifluoromethoxy)phenoxy]-1H-benzimidazol-2-yl}methoxy]benzoic acid] | 221 to 227 | 42
6 | Cn1c(COc2cccc(C(=O)O)c2)nc2ccc(Oc3cc(F)cc(Cl)c3)cc21 [Example 38, 3-{[6-(3-Chloro-5-fluorophenoxy)-1-methyl-1H-benzimidazol-2-yl]methoxy}benzoic acid] | 209 to 213 | –
7 | Cc1cc(F)cc(Oc2ccc3nc(COc4cccc(C(=O)O)c4)n(C)c3c2)c1 [Example 40, 3-{[6-(3-Fluoro-5-methylphenoxy)-1-methyl-1H-benzimidazol-2-yl]methoxy}benzoic acid] | 224 to 226 | –
8 | Cn1c(COc2cccc(C(=O)O)c2)nc2ccc(Oc3cc(F)ccc3F)cc21 [Example 41, 3-{[6-(2,5-Difluorophenoxy)-1-methyl-1H-benzimidazol-2-yl]methoxy}benzoic acid] | – | 51
9 | CCc1cccc(Oc2ccc3nc(COc4cccc(C(=O)O)c4)n(C)c3c2)c1 [Example 42, 3-{[6-(3-Ethylphenoxy)-1-methyl-1H-benzimidazol-2-yl]methoxy}benzoic acid] | 204 to 208 | 29
10 | Cc1ccc(Oc2ccc3nc(COc4cccc(C(=O)O)c4)n(C)c3c2)cc1 [Example 49, 3-{[1-Methyl-6-(4-methylphenoxy)-1H-benzimidazol-2-yl]methoxy}benzoic acid] | – | 48
11 | COc1cc(Oc2ccc3nc(COc4cccc(C(=O)O)c4)n(C)c3c2)ccc1C [Example 54, 3-{[6-(3-Methoxy-4-methylphenoxy)-1-methyl-1H-benzimidazol-2-yl]methoxy}benzoic acid] | – | 32
12 | Cc1ccc(Oc2ccc3nc(COc4cccc(C(=O)O)c4)n(C)c3c2)cc1C [Example 55, 3-{[6-(3,4-Dimethylphenoxy)-1-methyl-1H-benzimidazol-2-yl]methoxy}benzoic acid] | – | 44
13 | Cn1c(COc2cc(F)cc(C(=O)O)c2)nc2ccc(Oc3ccc(Cl)c(F)c3)cc21 [Example 59, 3-{[6-(4-Chloro-3-fluorophenoxy)-1-methyl-1H-benzimidazol-2-yl]methoxy}-5-fluorobenzoic acid] | – | 47
14 | CCC(CC)Oc1ccc2nc(COc3cccc(C(=O)O)c3)n(C)c2c1 [Example 67, 3-{[6-(1-Ethylpropoxy)-1-methyl-1H-benzimidazol-2-yl]methoxy}benzoic acid] | – | 50
15 | Cc1ccc(Oc2ccc3nc(COc4cccc(C(=O)O)c4)n(C)c3n2)cc1 [Example 69, 3-{[3-Methyl-5-(4-methylphenoxy)-3H-imidazo[4,5-b]pyridin-2-yl]methoxy}benzoic acid] | – | 43
16 | Cc1ccc(Oc2ccc3nc(COc4cccc(C(=O)O)c4)n(C)c3n2)cc1C [Example 70, 3-{[5-(3,4-Dimethylphenoxy)-3-methyl-3H-imidazo[4,5-b]pyridin-2-yl]methoxy}benzoic acid] | – | 38
17 | Cc1ccc(Oc2ccc3nc(COc4cc(F)cc(C(=O)O)c4)n(C)c3n2)cc1 [Example 72, 3-Fluoro-5-{[3-methyl-5-(4-methylphenoxy)-3H-imidazo[4,5-b]pyridin-2-yl]methoxy}benzoic acid] | – | 42
